Like-named read-outs stand apart in the source and are kept apart here. Where a SMILES comes first, the peptide text is derived from it. Where no end group is shown, it is not given here. [ ]: non-standard residue; d: D form. The star is where a group is joined. Biotin = O=C1N[C@H]2[C@H](CS[C@H]2CCCCC(=O)*)N1; PEG10 = NCCOCCOCCOCCOCCOCCOCCOCCOCCOCCOCCC(=O)O
How the values were obtained:
[1] = molecular target: demineralized bone matrix (DBM); assay: Biotinylated peptide binding to demineralized bone matrix (ELISA-type, streptavidin-alkaline phosphatase/pNPP); design: species or system human
Procedure: Relative binding strengths of the peptides to bone, also used as a measure of binding specificity, were determined by testing serial dilutions of the peptide for binding to bone, as represented by DBM. Plotting the absorbance observed across the concentration range for each peptide sequence yielded a binding curve of the peptides to its target substrate from which can be determined an EC50. The goal of the screenings and selections was to identify one or more peptides that bind to the selected substrate with binding specificity, with an EC50 of less than or equal to about 10 μM, and for some embodiments, in the nanomolar range (<1 μM).
As a specific example, DBM was placed in a microtiter plate at a concentration of 3 mg equivalents per well, and then the wells were blocked with buffer containing 1% BSA for 1 hour at room temperature. The buffer containing 1% BSA was then aspirated from each well, and added to the wells were the serial dilutions of biotinylated peptide. The microtiter plates were incubated for 1 hour at room temperature on a plate shaker. The DBM was then allowed to settle, and the buffer was then aspirated from the wells. The DBM was washed three times with buffer-T, and then streptavidin-alkaline phosphatase was added. The microtiter plates were incubated for 1 hour at room temperature on a plate shaker. The DBM was then allowed to settle, and the buffer was then aspirated from the wells. The DBM was washed three times with buffer-T, pNPP (p-nitrophenyl phosphate) was used to develop the assay, and the absorbance was recorded at 405 nm. An estimate of the relative affinity (binding specificity, EC50) of a peptide for bone can be made by determining the concentration of peptide that gives one-half the maximal signal in the assay.
Example 1 illustrates methods to determine the relative binding strengths of peptide to bone. […] A biotin molecule was linked to the C-terminal lysine. Also shown in Table 3 are the relative binding strengths expressed as EC50 (μM) to bone as represented by DBM of human origin. It is noted that the EC50 values were the same or substantially similar when DBM of rabbit origin was used.
Relative binding strength embodiments of the compositions to bone, also used as a measure of binding specificity, were determined by testing serial dilutions of the composition for binding to bone, as described in Example 1 Section B. Plotting the absorbance observed across the concentration range for each composition yielded a binding curve and rough dissociation constant of the composition for bone. Similar to a peptide having binding specificity for bone from which the composition is made, one property of the composition embodiments is that they bind to bone with binding specificity as measured by an EC50 of less than or equal to about 10 μM, and for some embodiments, in the nanomolar range (<1 μM). Using the methods outlined in Example 1B herein, assayed were the relative binding strengths of […] illustrative composition embodiments which include the amino acid sequences shown in SEQ ID NOs: 137, 138, 139, 140, 141 & 142, see Table 7, and synthesized to include a C-terminal amino linker which was biotinylated to facilitate determination of the relative binding strengths to bone. Shown in Table 8 are the relative binding strengths of composition embodiments to bone, as represented by DBM, expressed as EC50 (in μM).

cancellous bone (CNB) = assay: Biotinylated peptide binding to cancellous bone
Procedure: (§1) Relative binding strengths of the peptides to bone, also used as a measure of binding specificity, were determined by testing serial dilutions of the peptide for binding to bone, as represented by DBM. Plotting the absorbance observed across the concentration range for each peptide sequence yielded a binding curve of the peptides to its target substrate from which can be determined an EC50. The goal of the screenings and selections was to identify one or more peptides that bind to the selected substrate with binding specificity, with an EC50 of less than or equal to about 10 μM, and for some embodiments, in the nanomolar range (<1 μM). […] As a specific example, DBM was placed in a microtiter plate at a concentration of 3 mg equivalents per well, and then the wells were blocked with buffer containing 1% BSA for 1 hour at room temperature. The buffer containing 1% BSA was then aspirated from each well, and added to the wells were the serial dilutions of biotinylated peptide. The microtiter plates were incubated for 1 hour at room temperature on a plate shaker. The DBM was then allowed to settle, and the buffer was then aspirated from the wells. The DBM was washed three times with buffer-T, and then streptavidin-alkaline phosphatase was added. The microtiter plates were incubated for 1 hour at room temperature on a plate shaker. The DBM was then allowed to settle, and the buffer was then aspirated from the wells. The DBM was washed three times with buffer-T, pNPP (p-nitrophenyl phosphate) was used to develop the assay, and the absorbance was recorded at 405 nm. An estimate of the relative affinity (binding specificity, EC50) of a peptide for bone can be made by determining the concentration of peptide that gives one-half the maximal signal in the assay. Using the methodology illustrated in Example 1, the peptides illustrated in Table 3 were also tested for relative binding strength to demineralized cortical bone, and to cancellous bone, additional evidence of binding specificity for bone.

[2] = molecular target: demineralized cortical bone (DCB); assay: Biotinylated peptide binding to demineralized cortical bone
Procedure: as §1

[3] = DBM of human origin, biotinylated peptide, read-out: Binding specificity for bone (e.g., DBM) EC50
[4] = demineralized bone matrix, read-out: EC50 (μM) for DBM
[5] = bone as represented by DBM, biotinylated composition, read-out: Binding specificity for bone EC50 (compositions X1-J-X2)

| Molecule | EC50 [1, 3] | EC50 [1, 4] | EC50 (cancellous bone (CNB)) | EC50 [2] | EC50 [1, 5] |
| --- | --- | --- | --- | --- | --- |
| CC(C)[C@H](NC(=O)[C@@H]1CCCN1C(=O)[C@H](C)NC(=O)[C@H](C)NC(=O)[C@H](CO)NC(=O)CNC(=O)[C@H](CC(N)=O)NC(=O)[C@H](Cc1c[nH]c2ccccc12)NC(=O)[C@H](Cc1ccccc1)NC(=O)CNC(=O)[C@H](Cc1c[nH]c2ccccc12)NC(=O)[C@H](Cc1c[nH]c2ccccc12)NC(=O)[C@@H](N)CO)C(=O)N[C@@H](Cc1c[nH]c2ccccc12)C(=O)N[C@@H](CO)C(=O)N[C@@H](CCCNC(=N)N)C(=O)NCC(=O)N[C@@H](CO)C(=O)N[C@@H](CO)C(=O)NCC(=O)N[C@@H](CCCCNC(=O)CCCC[C@@H]1SC[C@@H]2NC(=O)N[C@@H]21)C(=O)O [compound 41] (H-SWWGFWNGSAAPVWSRGSSGK(Biotin)-OH) | < 0.1 µM | < 0.1 µM | ≤ 0.1 µM | < 0.1 µM |  |
| C[C@H](NC(=O)CNC(=O)[C@H](CO)NC(=O)CNC(=O)[C@H](Cc1c[nH]c2ccccc12)NC(=O)[C@H](Cc1c[nH]c2ccccc12)NC(=O)[C@H](Cc1c[nH]c2ccccc12)NC(=O)[C@H](CO)NC(=O)CNC(=O)[C@H](Cc1ccccc1)NC(=O)[C@@H](N)CO)C(=O)N[C@@H](C)C(=O)N[C@@H](CO)C(=O)N[C@@H](CO)C(=O)N[C@@H](CCCNC(=N)N)C(=O)NCC(=O)N[C@@H](CO)C(=O)N[C@@H](CO)C(=O)NCC(=O)N[C@@H](CCCCNC(=O)CCCC[C@@H]1SC[C@@H]2NC(=O)N[C@@H]21)C(=O)O [compound 42] (H-SFGSWWWGSGAASSRGSSGK(Biotin)-OH) | < 0.1 µM | < 0.1 µM | < 0.5 µM | < 0.1 µM |  |
| CC(C)C[C@H](NC(=O)[C@H](CO)NC(=O)[C@H](CO)NC(=O)[C@H](Cc1ccccc1)NC(=O)[C@H](C)NC(=O)[C@H](CCC(=O)O)NC(=O)[C@H](Cc1c[nH]c2ccccc12)NC(=O)[C@H](C)NC(=O)CNC(=O)[C@H](C)NC(=O)CNC(=O)[C@H](CO)NC(=O)[C@H](CO)NC(=O)CNC(=O)[C@H](CCCNC(=N)N)NC(=O)[C@H](CO)NC(=O)[C@H](Cc1c[nH]c2ccccc12)NC(=O)[C@@H](NC(=O)[C@@H]1CCCN1C(=O)[C@H](C)NC(=O)[C@H](C)NC(=O)[C@H](CO)NC(=O)CNC(=O)[C@H](CC(N)=O)NC(=O)[C@H](Cc1c[nH]c2ccccc12)NC(=O)[C@H](Cc1ccccc1)NC(=O)CNC(=O)[C@H](Cc1c[nH]c2ccccc12)NC(=O)[C@H](Cc1c[nH]c2ccccc12)NC(=O)[C@@H](N)CO)C(C)C)C(=O)N[C@@H](CO)C(=O)NCC(=O)N[C@@H](CO)C(=O)N[C@@H](CCCNC(=N)N)C(=O)N[C@H](C(=O)NCC(=O)N[C@@H](CO)C(=O)N[C@@H](CO)C(=O)NCC(=O)N[C@@H](CCCCNC(=O)CCCC[C@@H]1SC[C@@H]2NC(=O)N[C@@H]21)C(=O)O)C(C)C [compound 138] (H-SWWGFWNGSAAPVWSRGSSGAGAWEAFSSLSGSRVGSSGK(Biotin)-OH; N-terminus and C-terminus assumed) |  |  |  |  | < 0.1 µM |
| CC(C)C[C@H](NC(=O)[C@H](CO)NC(=O)[C@H](CCCNC(=N)N)NC(=O)[C@H](Cc1ccccc1)NC(=O)[C@H](CC(=O)O)NC(=O)[C@H](Cc1c[nH]c2ccccc12)NC(=O)[C@@H](N)CO)C(=O)N[C@@H](CCCNC(=N)N)C(=O)N[C@@H](CC(=O)O)C(=O)N[C@@H](Cc1c[nH]c2ccccc12)C(=O)N[C@@H](Cc1c[nH]c2ccccc12)C(=O)N1CCC[C@H]1C(=O)N1CCC[C@H]1C(=O)N[C@@H](C)C(=O)N1CCC[C@H]1C(=O)N[C@@H](CO)C(=O)N[C@@H](CC(C)C)C(=O)N[C@@H](CO)C(=O)N[C@@H](CO)C(=O)N[C@@H](CCCNC(=N)N)C(=O)NCC(=O)N[C@@H](CO)C(=O)N[C@@H](CO)C(=O)NCC(=O)N[C@@H](CCCCNC(=O)CCCC[C@@H]1SC[C@@H]2NC(=O)N[C@@H]21)C(=O)O [compound 45] (H-SWDFRSLRDWWPPAPSLSSRGSSGK(Biotin)-OH) | < 1 µM | < 1 µM | < 1 µM | < 1 µM |  |
| SWWGFWNGSAAPVWSRGSSESAGAWEAFSSLSGSRVGSSGK(Biotin) [compound 137] |  |  |  |  | < 0.5 µM |

Continued, values first:

| EC50 [1, 3] | EC50 [1, 4] | EC50 (cancellous bone (CNB)) | EC50 [2] | EC50 [1, 5] | Molecule |
| --- | --- | --- | --- | --- | --- |
|  |  |  |  | < 0.5 µM | CC(C)C[C@H](NC(=O)[C@H](CO)NC(=O)[C@H](CO)NC(=O)[C@H](Cc1ccccc1)NC(=O)[C@H](C)NC(=O)[C@H](CCC(=O)O)NC(=O)[C@H](Cc1c[nH]c2ccccc12)NC(=O)[C@H](C)NC(=O)CNC(=O)CNC(=O)CNC(=O)CCOCCOCCOCCOCCOCCOCCOCCOCCOCCOCCNC(=O)CNC(=O)[C@H](CCCNC(=N)N)NC(=O)[C@H](CO)NC(=O)[C@H](CO)NC(=O)[C@H](C)NC(=O)[C@H](C)NC(=O)CNC(=O)[C@H](CO)NC(=O)CNC(=O)[C@H](Cc1c[nH]c2ccccc12)NC(=O)[C@H](Cc1c[nH]c2ccccc12)NC(=O)[C@H](Cc1c[nH]c2ccccc12)NC(=O)[C@H](CO)NC(=O)CNC(=O)[C@H](Cc1ccccc1)NC(=O)[C@@H](N)CO)C(=O)N[C@@H](CO)C(=O)NCC(=O)N[C@@H](CO)C(=O)N[C@@H](CCCNC(=N)N)C(=O)N[C@H](C(=O)NCC(=O)N[C@@H](CO)C(=O)N[C@@H](CO)C(=O)NCC(=O)N[C@@H](CCCCNC(=O)CCCC[C@@H]1SC[C@@H]2NC(=O)N[C@@H]21)C(N)=O)C(C)C [compound 141] (H-SFGSWWWGSGAASSRG[PEG10]GGGAWEAFSSLSGSRVGSSGK(Biotin)-NH2; N-terminus and C-terminus assumed) |
|  |  |  |  | < 0.5 µM | SFGSWWWGSGAASSRGSSGGGALGFPLKGEVVEGWAGSSGK(Biotin) [compound 140] |
|  |  |  |  | < 0.5 µM | CC(C)C[C@H](NC(=O)[C@H](CO)NC(=O)[C@H](CO)NC(=O)[C@H](Cc1ccccc1)NC(=O)[C@H](C)NC(=O)[C@H](CCC(=O)O)NC(=O)[C@H](Cc1c[nH]c2ccccc12)NC(=O)[C@H](C)NC(=O)CNC(=O)[C@H](C)NC(=O)CCOCCOCCOCCOCCOCCOCCOCCOCCOCCOCCNC(=O)CNC(=O)[C@H](CCCNC(=N)N)NC(=O)[C@H](CO)NC(=O)[C@H](CO)NC(=O)[C@H](C)NC(=O)[C@H](C)NC(=O)CNC(=O)[C@H](CO)NC(=O)CNC(=O)[C@H](Cc1c[nH]c2ccccc12)NC(=O)[C@H](Cc1c[nH]c2ccccc12)NC(=O)[C@H](Cc1c[nH]c2ccccc12)NC(=O)[C@H](CO)NC(=O)CNC(=O)[C@H](Cc1ccccc1)NC(=O)[C@@H](N)CO)C(=O)N[C@@H](CO)C(=O)NCC(=O)N[C@@H](CO)C(=O)N[C@@H](CCCNC(=N)N)C(=O)N[C@H](C(=O)NCC(=O)N[C@@H](CO)C(=O)N[C@@H](CO)C(=O)NCC(=O)N[C@@H](CCCCNC(=O)CCCC[C@@H]1SC[C@@H]2NC(=O)N[C@@H]21)C(N)=O)C(C)C [compound 142] (H-SFGSWWWGSGAASSRG[PEG10]AGAWEAFSSLSGSRVGSSGK(Biotin)-NH2; N-terminus and C-terminus assumed) |
|  |  |  |  | < 0.5 µM | SWWGFWNGSAAPVWSRGSSGAGALGFPLKGEVVEGWAGSSGK(Biotin) [compound 139] |
